In article PMC10695616, “Rational design peptide inhibitors of Cyclophilin D as a potential treatment for acute pancreatitis” (Medicine, 2023):
Ends that are not written are not given here.

What follows are substances tested against T1, Human recombinant CypD (Homo sapiens, UniProt P30405) (assay: chymotrypsin coupled prolyl-isomerase inhibitory assay). Conditions: Suc-AAPF-AMC substrate, peptide 0.001 to 100 μM, 25 °C.
T1 construct: purchased Beyotime (Shanghai, China)
Type: biochemical
Experimental: The method for measuring half-maximal inhibitory concentration (IC50) values of the peptides against CypD was described previously as chymotrypsin coupled prolyl-isomerase assay. Human recombinant CypD was purchased from Beyotime (Shanghai, China). The substrate solution for inhibitory assay was prepared as 100 μM Suc-AAPF-AMC (Chymotrypsin Substrate II, Sigma–Aldrich, Shanghai, China) with varied concentration of selected peptide (varied from 0.001 to 100 μM), 15 μg/mL CypD, and 0.5 M LiCl/2,2,2-trifluoroethanol. Alpha-chymotrypsin from bovine pancreas was purchased from Sigma (Shanghai, China) and dissolved in 0.001 M HCl, the concentration for chymotrypsin was prepared to 5 mg/mL. For inhibitory assay, the 96-well plate was filled with 150 μL of the substrate solution and incubated at 25 °C for 1 hour, followed by adding 40 μL of the chymotrypsin solution. The fluorescent changes under 380 nm was captured every 5 seconds for 300 seconds using Mltrospec 3100. The IC50 value was calculated which indicated the peptide concentration needed for obtaining 50% of […] inhibitory activity.
The binding affinity of selected peptides against CypD was tested using a modified inhibitory assay.[37] […] The selected 5 peptides were preincubated with CypD to validate their capability for blocking CypD activity. […] Compound C-9 was previously reported as a strong binder of CypD,[37] therefore, we adopted compound C-9 as a reference sample to evaluate the binding activity of the designed peptides.

T1 sequence (P30405 30-207): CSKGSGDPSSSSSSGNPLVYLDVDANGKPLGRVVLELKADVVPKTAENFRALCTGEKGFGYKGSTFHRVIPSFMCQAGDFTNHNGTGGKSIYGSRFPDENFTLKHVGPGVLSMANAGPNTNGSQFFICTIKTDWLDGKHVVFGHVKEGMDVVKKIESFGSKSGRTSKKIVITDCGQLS

Substance	IC50 [nM]
WACKN [WACKN]	2460
WACKQ [WACKQ]	10500
WACLQ [WACLQ]	370
WACNQ [WACNQ]	2630
